Results as given in ChEMBL document CHEMBL4359918, “Discovery of tissue selective liver X receptor agonists for the treatment of atherosclerosis without causing hepatic lipogenesis” (Eur J Med Chem, 2019).

Assays:
[1] = Toxicity in high fat diet-induced C57BL/6 mouse model of hypercholesterolemia assessed as reduction in liver weight at 20 mg/kg, po administered for 12 weeks by H and E staining-based assay; assay type: organism-based; conditions: in vivo, 2016 h
[2] = system: Mus musculus; test: Induction of hepatic steatosis in C57BL/6 mouse assessed as accumulation of hepatic triglyceride level at 50 mg/kg/day, ig administered for 7 days; assay type: organism-based; conditions: in vivo, po, 168 h
[3] = system: Mus musculus; test: Induction of hepatic steatosis in C57BL/6 mouse assessed as accumulation of serum triglyceride level at 50 mg/kg/day, ig administered for 7 days; assay type: organism-based; conditions: in vivo, po, 168 h
[4] = system: Mus musculus; test: Increase in hepatic triglyceride level in high fat diet-induced C57BL/6 mouse model of hypercholesterolemia at 20 mg/kg, po administered for 12 weeks; assay type: ADME, organism-based; conditions: in vivo, 2016 h

Measured: Activity

O=S(=O)(c1ccccc1)N(CC(F)(F)F)c1ccc(C(O)(C(F)(F)F)C(F)(F)F)cc1 [T091317]
Toxic: all assays above
